Assay results published in ChEMBL document CHEMBL1909046, “DrugMatrix in vitro pharmacology data”.

How the values were obtained:
[1] = DRUGMATRIX: Sodium/nucleoside co-transporter radioligand binding (ligand: nitrobenzylthioinosine); assay type: cell membranes, Cavia porcellus, Dunkin-Hartley, Cerebral cortex, Membrane; settings: Not Active = under 50% inhibition at 10 µM
[2] = target: T1, Type-2 angiotensin II receptor (Homo sapiens, UniProt P50052); assay type: cell-based; settings: cho-k1; further: in other assays of this panel Not Active means under 50% inhibition at 10 µM
T1 sequence (P50052 whole entry): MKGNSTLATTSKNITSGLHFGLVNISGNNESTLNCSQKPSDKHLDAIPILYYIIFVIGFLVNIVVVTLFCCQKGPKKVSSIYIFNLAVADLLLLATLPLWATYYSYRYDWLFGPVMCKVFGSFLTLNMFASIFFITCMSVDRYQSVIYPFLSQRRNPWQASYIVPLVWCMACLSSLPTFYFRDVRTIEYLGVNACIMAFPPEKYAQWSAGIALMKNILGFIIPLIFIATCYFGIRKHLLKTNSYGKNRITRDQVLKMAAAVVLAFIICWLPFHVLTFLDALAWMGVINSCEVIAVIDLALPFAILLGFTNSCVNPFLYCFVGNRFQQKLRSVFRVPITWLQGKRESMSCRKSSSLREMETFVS

[3] = DRUGMATRIX: beta-Lactamase enzyme inhibition (substrate: Nitrocefin); design: species or system Bacillus cereus; settings: Not Active = under 50% inhibition at 10 µM
[4] = target: 5-hydroxytryptamine receptor 6 (Homo sapiens, UniProt P50406); assay type: cell membranes, HeLa, Membrane; further: in other assays of this panel Not Active means under 50% inhibition at 10 µM
Sequence of 5-hydroxytryptamine receptor 6 (P50406 whole entry): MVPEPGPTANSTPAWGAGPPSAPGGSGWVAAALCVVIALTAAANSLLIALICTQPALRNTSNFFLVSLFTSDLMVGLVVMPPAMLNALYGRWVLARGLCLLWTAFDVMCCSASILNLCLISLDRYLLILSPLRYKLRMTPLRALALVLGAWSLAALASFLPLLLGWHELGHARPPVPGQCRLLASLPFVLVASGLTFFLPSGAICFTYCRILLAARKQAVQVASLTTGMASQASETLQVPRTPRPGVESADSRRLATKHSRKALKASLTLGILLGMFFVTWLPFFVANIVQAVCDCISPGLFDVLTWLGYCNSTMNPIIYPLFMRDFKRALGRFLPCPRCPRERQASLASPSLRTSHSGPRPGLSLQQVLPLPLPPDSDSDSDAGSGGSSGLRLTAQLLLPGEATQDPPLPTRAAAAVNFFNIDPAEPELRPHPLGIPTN

[5] = target: T2, Vasoactive intestinal polypeptide receptor 1 (Homo sapiens, UniProt P32241); assay type: cell membranes, Membrane; settings: ht-29; further: in other assays of this panel Not Active means under 50% inhibition at 10 µM
T2 sequence (P32241 whole entry): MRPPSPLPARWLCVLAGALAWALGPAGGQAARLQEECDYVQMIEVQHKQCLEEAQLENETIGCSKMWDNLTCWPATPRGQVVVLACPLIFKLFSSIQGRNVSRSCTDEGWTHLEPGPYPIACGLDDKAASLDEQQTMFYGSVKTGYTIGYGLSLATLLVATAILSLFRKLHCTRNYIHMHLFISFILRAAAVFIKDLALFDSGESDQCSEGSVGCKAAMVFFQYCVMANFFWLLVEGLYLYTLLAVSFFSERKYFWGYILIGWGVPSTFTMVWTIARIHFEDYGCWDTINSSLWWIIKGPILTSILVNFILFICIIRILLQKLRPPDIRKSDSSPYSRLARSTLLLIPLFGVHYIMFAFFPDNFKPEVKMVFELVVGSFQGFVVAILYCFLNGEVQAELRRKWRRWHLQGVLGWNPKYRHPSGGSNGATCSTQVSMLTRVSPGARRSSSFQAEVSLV

Vasopressin V1a receptor = Vasopressin V1a receptor (Homo sapiens, UniProt P37288); assay type: cell membranes, Membrane; settings: hek293; further: in other assays of this panel Not Active means under 50% inhibition at 10 µM
Sequence of Vasopressin V1a receptor (P37288 whole entry): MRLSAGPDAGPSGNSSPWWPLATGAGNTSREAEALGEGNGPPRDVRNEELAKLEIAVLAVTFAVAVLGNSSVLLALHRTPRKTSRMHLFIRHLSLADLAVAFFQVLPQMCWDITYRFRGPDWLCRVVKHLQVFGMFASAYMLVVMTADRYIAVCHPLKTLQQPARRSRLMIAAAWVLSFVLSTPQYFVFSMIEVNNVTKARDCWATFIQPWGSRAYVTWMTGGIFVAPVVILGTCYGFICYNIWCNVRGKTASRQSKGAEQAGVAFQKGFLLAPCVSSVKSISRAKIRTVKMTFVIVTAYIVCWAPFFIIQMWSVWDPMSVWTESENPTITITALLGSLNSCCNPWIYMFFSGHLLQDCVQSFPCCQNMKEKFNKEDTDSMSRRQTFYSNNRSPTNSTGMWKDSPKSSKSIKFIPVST

Cannabinoid receptor 1 = Cannabinoid receptor 1 (Homo sapiens, UniProt P21554); assay type: cell membranes, Membrane; settings: chem-1; further: in other assays of this panel Not Active means under 50% inhibition at 10 µM
Sequence of Cannabinoid receptor 1 (P21554 whole entry): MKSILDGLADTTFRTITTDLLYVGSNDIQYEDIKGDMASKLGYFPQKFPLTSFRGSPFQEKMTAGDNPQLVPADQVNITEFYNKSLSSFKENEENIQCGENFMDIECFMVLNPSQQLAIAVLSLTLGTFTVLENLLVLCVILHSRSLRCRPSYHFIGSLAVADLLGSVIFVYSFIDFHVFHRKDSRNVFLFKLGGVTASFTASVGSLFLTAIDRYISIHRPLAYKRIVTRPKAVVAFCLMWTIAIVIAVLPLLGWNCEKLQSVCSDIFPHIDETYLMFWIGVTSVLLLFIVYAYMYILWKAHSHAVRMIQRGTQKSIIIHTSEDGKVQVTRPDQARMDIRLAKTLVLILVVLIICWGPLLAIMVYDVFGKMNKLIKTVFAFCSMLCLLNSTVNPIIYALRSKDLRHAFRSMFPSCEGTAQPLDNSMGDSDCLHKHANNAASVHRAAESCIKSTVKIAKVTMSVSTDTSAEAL

[6] = target: Prostaglandin G/H synthase 1 (Homo sapiens, UniProt P23219); test: biochemical; assay type: tissue-based, Platelet; settings: platelet
Sequence of Prostaglandin G/H synthase 1 (P23219 whole entry): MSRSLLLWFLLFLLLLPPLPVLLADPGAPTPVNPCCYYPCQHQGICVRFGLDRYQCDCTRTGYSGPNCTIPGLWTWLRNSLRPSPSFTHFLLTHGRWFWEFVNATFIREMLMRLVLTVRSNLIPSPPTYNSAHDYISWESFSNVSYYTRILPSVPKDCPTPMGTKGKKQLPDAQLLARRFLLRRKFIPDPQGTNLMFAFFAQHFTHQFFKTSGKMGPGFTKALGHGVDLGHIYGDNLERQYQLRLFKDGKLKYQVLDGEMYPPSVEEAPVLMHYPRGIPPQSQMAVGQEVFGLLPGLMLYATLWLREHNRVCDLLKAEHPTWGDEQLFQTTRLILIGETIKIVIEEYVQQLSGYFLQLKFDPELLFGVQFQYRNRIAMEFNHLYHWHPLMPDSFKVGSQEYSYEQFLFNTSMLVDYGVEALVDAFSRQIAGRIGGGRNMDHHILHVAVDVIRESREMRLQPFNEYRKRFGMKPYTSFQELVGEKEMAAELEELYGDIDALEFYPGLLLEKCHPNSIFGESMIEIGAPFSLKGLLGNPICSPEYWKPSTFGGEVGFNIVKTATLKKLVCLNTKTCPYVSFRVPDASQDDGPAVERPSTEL

D(3) dopamine receptor = D(3) dopamine receptor (Homo sapiens, UniProt P35462); test: DRUGMATRIX: Dopamine D3 radioligand binding (ligand: [3H] Spiperone); assay type: cell membranes, CHO, Membrane; settings: cho
Sequence of D(3) dopamine receptor (P35462 whole entry): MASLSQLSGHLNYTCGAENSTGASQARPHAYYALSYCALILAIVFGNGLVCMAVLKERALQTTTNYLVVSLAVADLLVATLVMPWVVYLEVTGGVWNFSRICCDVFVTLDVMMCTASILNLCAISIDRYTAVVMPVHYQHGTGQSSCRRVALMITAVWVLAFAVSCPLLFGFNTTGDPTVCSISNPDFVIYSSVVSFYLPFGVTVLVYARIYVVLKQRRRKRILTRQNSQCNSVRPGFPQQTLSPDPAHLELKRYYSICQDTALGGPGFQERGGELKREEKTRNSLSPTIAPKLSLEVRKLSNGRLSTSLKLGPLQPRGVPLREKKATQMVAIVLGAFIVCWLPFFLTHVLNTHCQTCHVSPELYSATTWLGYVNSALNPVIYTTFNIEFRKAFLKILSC

[7] = target: T3, 3-hydroxy-3-methylglutaryl-coenzyme A reductase (Homo sapiens, UniProt P04035); design: species or system Escherichia coli
T3 sequence (P04035 whole entry): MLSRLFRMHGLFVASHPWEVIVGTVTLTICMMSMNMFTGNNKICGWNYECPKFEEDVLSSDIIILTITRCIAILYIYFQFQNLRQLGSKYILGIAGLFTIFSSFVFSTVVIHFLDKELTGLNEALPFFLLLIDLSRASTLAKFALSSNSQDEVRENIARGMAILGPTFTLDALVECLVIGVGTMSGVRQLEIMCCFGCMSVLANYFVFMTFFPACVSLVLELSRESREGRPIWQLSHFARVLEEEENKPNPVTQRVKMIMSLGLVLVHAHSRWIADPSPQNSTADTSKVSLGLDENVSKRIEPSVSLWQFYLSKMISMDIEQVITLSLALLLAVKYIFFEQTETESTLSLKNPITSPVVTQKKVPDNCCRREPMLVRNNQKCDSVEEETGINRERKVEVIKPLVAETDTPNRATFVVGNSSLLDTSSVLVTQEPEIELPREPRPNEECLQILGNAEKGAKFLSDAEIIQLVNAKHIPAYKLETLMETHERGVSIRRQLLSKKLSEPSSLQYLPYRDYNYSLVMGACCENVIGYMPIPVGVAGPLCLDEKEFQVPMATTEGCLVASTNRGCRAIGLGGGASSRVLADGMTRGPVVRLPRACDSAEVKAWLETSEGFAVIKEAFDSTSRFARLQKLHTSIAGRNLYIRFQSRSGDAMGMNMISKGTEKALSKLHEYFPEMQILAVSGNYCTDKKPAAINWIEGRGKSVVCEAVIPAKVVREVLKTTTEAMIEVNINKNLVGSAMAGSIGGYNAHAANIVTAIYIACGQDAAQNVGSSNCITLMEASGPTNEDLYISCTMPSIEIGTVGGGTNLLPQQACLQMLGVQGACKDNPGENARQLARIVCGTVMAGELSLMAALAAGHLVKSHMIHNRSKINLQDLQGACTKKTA

Nitric oxide synthase 1 = Nitric oxide synthase 1 (Rattus norvegicus, UniProt P29476); assay type: tissue-based, Cerebellum; further: in other assays of this panel Not Active means under 50% inhibition at 10 µM
[8] = target: cGMP-specific 3',5'-cyclic phosphodiesterase (Homo sapiens, UniProt O76074); test: DRUGMATRIX: Phosphodiesterase PDE5 enzyme inhibition (substrate: [3H]cGMP + cGMP); assay type: tissue-based, Platelet; settings: platelet; Not Active = under 50% inhibition at 10 µM
Neutrophil elastase = target: T4, Neutrophil elastase (Homo sapiens, UniProt P08246); assay type: tissue-based
T4 sequence (P08246 whole entry): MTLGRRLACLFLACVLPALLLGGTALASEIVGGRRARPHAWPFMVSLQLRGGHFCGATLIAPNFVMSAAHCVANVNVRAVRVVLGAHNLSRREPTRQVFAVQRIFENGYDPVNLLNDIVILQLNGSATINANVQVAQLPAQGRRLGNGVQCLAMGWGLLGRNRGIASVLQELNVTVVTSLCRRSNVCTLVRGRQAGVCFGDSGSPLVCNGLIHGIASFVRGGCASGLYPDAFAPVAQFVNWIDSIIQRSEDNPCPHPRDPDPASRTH

[9] = target: Receptor tyrosine-protein kinase erbB-2 (Homo sapiens, UniProt P04626); test: biochemical; assay type: cell-based, Insect cells; settings: insect cells
Sequence of Receptor tyrosine-protein kinase erbB-2 (P04626 whole entry): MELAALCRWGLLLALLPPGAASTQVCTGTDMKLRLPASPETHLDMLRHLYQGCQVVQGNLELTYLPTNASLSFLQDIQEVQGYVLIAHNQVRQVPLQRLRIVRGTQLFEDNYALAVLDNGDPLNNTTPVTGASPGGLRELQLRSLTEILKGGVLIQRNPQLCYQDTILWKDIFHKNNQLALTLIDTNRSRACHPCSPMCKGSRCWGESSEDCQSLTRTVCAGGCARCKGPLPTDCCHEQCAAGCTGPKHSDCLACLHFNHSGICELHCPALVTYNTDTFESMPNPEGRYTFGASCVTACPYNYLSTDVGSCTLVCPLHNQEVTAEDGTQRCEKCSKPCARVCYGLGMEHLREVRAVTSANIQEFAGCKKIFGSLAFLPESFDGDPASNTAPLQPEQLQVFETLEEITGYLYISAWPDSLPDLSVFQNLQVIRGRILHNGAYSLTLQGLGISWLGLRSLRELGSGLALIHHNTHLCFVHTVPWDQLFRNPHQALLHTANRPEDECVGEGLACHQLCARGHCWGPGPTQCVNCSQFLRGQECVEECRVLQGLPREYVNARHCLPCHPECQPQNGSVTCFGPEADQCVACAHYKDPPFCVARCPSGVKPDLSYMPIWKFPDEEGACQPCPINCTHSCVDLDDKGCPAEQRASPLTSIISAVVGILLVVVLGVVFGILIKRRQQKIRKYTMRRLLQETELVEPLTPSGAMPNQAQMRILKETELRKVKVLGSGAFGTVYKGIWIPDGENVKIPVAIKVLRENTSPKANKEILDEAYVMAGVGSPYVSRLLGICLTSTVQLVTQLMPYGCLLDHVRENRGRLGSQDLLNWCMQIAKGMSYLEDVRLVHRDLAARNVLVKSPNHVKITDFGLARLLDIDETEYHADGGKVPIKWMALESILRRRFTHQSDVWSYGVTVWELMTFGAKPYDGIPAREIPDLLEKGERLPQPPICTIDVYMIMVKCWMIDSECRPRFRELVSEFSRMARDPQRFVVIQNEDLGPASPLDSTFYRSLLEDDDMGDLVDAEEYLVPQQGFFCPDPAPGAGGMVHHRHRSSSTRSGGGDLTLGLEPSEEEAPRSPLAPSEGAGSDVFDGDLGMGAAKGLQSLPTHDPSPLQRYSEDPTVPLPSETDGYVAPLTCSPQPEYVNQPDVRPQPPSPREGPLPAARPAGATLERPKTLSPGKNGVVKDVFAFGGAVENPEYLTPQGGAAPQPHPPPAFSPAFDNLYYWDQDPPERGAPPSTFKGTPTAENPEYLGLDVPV

[10] = target: 5-hydroxytryptamine receptor 1B (Rattus norvegicus, UniProt P28564); assay type: cell membranes, Wistar, Cerebral cortex, Membrane; further: in other assays of this panel Not Active means under 50% inhibition at 10 µM
Sequence of 5-hydroxytryptamine receptor 1B (P28564 whole entry): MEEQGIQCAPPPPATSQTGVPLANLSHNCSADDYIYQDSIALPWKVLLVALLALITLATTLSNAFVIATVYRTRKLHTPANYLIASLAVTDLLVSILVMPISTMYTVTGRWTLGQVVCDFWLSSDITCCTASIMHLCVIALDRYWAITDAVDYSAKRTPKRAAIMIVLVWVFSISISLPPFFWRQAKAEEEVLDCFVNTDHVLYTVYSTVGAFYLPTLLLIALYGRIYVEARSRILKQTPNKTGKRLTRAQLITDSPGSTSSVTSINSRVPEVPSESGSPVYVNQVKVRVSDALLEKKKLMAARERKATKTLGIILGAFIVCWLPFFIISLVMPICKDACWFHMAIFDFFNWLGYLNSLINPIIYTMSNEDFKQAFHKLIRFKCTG

Cytochrome P450 2E1 = Cytochrome P450 2E1 (Homo sapiens, UniProt P05181); settings: bti-tn-5b1-4; further: in other assays of this panel Not Active means under 50% inhibition at 10 µM
Sequence of Cytochrome P450 2E1 (P05181 whole entry): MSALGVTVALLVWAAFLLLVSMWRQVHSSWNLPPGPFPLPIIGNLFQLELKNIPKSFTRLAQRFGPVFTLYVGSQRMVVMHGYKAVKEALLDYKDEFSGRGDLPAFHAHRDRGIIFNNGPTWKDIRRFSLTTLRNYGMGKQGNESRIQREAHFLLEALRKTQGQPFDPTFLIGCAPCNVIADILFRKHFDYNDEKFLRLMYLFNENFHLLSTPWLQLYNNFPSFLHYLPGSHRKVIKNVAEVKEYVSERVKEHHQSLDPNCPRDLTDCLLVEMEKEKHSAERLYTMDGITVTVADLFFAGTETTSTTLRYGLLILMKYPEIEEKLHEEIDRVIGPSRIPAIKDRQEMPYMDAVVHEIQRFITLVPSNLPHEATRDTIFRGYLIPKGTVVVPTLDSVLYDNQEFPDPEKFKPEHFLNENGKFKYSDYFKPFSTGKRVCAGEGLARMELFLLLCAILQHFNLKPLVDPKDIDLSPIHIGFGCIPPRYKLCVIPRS

| Structure (SMILES) | IC50 [1] | Ki [1] | IC50 [2] | IC50 [3] | Ki [3] | IC50 ([4]; hela) | IC50 [5] | IC50 (Vasopressin V1a receptor) | IC50 (Cannabinoid receptor 1) | IC50 [6] | IC50 (D(3) dopamine receptor) | IC50 [7] | IC50 (Nitric oxide synthase 1) | IC50 [8] | IC50 (Neutrophil elastase) | IC50 [9] | IC50 [10] | IC50 (Cytochrome P450 2E1) | Ki (Cytochrome P450 2E1) | other results |
| --- | --- | --- | --- | --- | --- | --- | --- | --- | --- | --- | --- | --- | --- | --- | --- | --- | --- | --- | --- | --- |
| C[C@](N)(Cc1ccc(O)cc1)C(=O)O [METYROSINE] | Not Active | Not Active | Not Active | Not Active | Not Active | Not Active | Not Active | Not Active | Not Active | Not Active | Not Active | Not Active | Not Active | Not Active | Not Active | Not Active | Not Active | Not Active | Not Active |  |
| Clc1ccc(C(c2ccccc2Cl)C(Cl)Cl)cc1 (configuration not stated) [MITOTANE] | Not Active | Not Active | Not Active | Not Active | Not Active |  | Not Active | Not Active | Not Active | Not Active | Not Active | Not Active | Not Active | Not Active | Not Active | Not Active | Not Active | Not Active | Not Active | IC50 ([4]; read-out: IC50): 1400 nM; Ki ([4]; read-out: Ki): 651 nM |
| COc1c(C)c2c(c(O)c1C/C=C(\C)CCC(=O)OCCN1CCOCC1)C(=O)OC2 [MYCOPHENOLATE MOFETIL] | Not Active | Not Active | Not Active | Not Active | Not Active | Not Active | Not Active | Not Active | Not Active | Not Active | Not Active | Not Active | Not Active | Not Active | Not Active | Not Active | Not Active | Not Active | Not Active |  |
| NNc1ccccc1 [PHENYLHYDRAZINE] | Not Active | Not Active | Not Active | Not Active | Not Active | Not Active | Not Active | Not Active | Not Active | Not Active | Not Active | Not Active | Not Active | Not Active | Not Active | Not Active | Not Active | Not Active | Not Active |  |
| CC(=O)[C@H]1CC[C@H]2[C@@H]3CCC4=CC(=O)CC[C@]4(C)[C@H]3CC[C@]12C [PROGESTERONE] |  |  | Not Active | Not Active | Not Active | Not Active | Not Active | Not Active | Not Active | Not Active | Not Active | Not Active | Not Active | Not Active | Not Active | Not Active | Not Active | Not Active | Not Active | IC50 ([1]; read-out: IC50): 19.6 µM; Ki ([1]; read-out: Ki): 6.7 µM |
| NC(=O)c1ncn([C@@H]2O[C@H](CO)[C@@H](O)[C@H]2O)n1 [RIBAVIRIN] | Not Active | Not Active | Not Active | Not Active | Not Active | Not Active | Not Active | Not Active | Not Active | Not Active | Not Active | Not Active | Not Active | Not Active | Not Active | Not Active | Not Active | Not Active | Not Active |  |
| O=[N+]([O-])c1cc([As](=O)(O)O)ccc1O [ROXARSONE] | Not Active | Not Active | Not Active | Not Active | Not Active | Not Active | Not Active | Not Active | Not Active | Not Active | Not Active | Not Active | Not Active | Not Active | Not Active | Not Active | Not Active | Not Active | Not Active | Ki [2]: Not Active; Ki ([4]; hela): Not Active; Ki [5]: Not Active; Ki (Vasopressin V1a receptor): Not Active; Ki (Cannabinoid receptor 1): Not Active; Ki [6]: Not Active; Ki (D(3) dopamine receptor): Not Active; Ki [7]: Not Active; Ki (Nitric oxide synthase 1): Not Active; Ki [8]: Not Active; Ki (Neutrophil elastase): Not Active; Ki [9]: Not Active; Ki [10]: Not Active |
